Measured values from patent publication US20230303572A1, “18-MC SALT FORMS” (Mind Medicine, Inc., priority 2022, published 2023).
Where a name gives a salt, the structure may show the parent alone.

Experiments:
[1] = test system: substance use models (nicotine, alcohol, morphine, cocaine and methamphetamine); settings: animal studies; dosages as low as 10 mg/kg i.p.; cited from earlier work
[2] = test system: cocaine-seeking or "craving" behaviors; settings: animal model; cited from earlier work
[3] = Physical form stability on storage at RT, air drying or exposure to ambient conditions (XRPD); type: physicochemical
Excerpt: (§1) For XRPD analysis, a PANalytical Empyrean and X′ Pert3 X-ray powder diffract meter was used.

[4] = Heating experiments and VT-XRPD (N2 drying, heating, cooling back): form change; type: physicochemical; settings: for form conversion, summary statement: after desolvation
Excerpt: as §1

[5] = Relative thermodynamic stability of HCl salt forms (desolvation and form conversion data); type: physicochemical
Description: Starting from HCl salt materials with different forms, a total of 100 polymorph screening experiments was performed using different crystallization methods including salt formation by liquid vapor diffusion/slurry at elevated temperature, evaporation at RT/high temperatures, slurry and reverse anti-solvent addition at different temperatures, slow/crash cooling, polymer induced crystallization and grinding. All the resulting solids were isolated for XRPD test, and new forms were further characterized by TGA, DSC, ^1H NMR and HPLC/ IC.
An additional polymorph screening was performed for 18-MC HCl salt.

Row | Compound | effect on drug self-administration [1] | effect on cue-induced cocaine-seeking [2] | form change after storage (XRPD) ([3]; storage at RT for ~3 days) | form change after N2 drying (VT-XRPD) ([4]; N2-drying for 20 min at 30° C.) | form conversion, summary statement [4] | form change after heating (XRPD/VT-XRPD) ([4]; heating to 100° C.) | form change after heating (VT-XRPD) ([4]; heating to 180° C. under N2 protection) | Form after desolvation ([5]; RT storage or heat to 100° C. under N2) | change after air drying ([3]; air drying at RT, time not stated) | form change after heating (XRPD) ([4]; heating to 150° C.) | Form after desolvation ([5]; solvates of HCl salt, form after desolvation)
1 | COCC[C@H]1CC2CN3CCc4c([nH]c5ccccc45)[C@](C(=O)OC)(C2)[C@H]13 [18-MC, 18-methoxycoronaridine] | significantly reduces drug self-administration | attenuate effects of the environmental cues | – | – | – | – | – | – | – | – | –
2 | COCC[C@H]1CC2CN3CCc4c([nH]c5ccccc45)[C@](C(=O)OC)(C2)[C@H]13 [HCl salt Type M, 18-methoxycoronaridine] | – | – | extra peaks of HCl salt Type A | no form change | converted to HCl salt Type A | peaks of HCl salt Type A were observed | most diffraction peaks were consistent with HCl salt Type A with extra peak similar to HCl salt Type K | HCl salt Type A** | – | – | –
3 | COCC[C@H]1CC2CN3CCc4c([nH]c5ccccc45)[C@](C(=O)OC)(C2)[C@H]13 [HCl salt Type S, 18-methoxycoronaridine] | – | – | – | – | converted to HCl salt Type A | – | – | – | turned to be gel like | most diffraction peaks were consistent with HCl salt Type A | HCl salt Type A
